Results as given in PubChem BioAssay (NCI).
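How tested: cells in 96-well plates exposed to compound for 48 hours at five concentrations. GI50: concentration for 50% inhibition of growth. The concentration for full growth arrest is given as TGI.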

How the values were obtained:
Assay in all cases: NCI-60 cell line screen, 48 h
SW-620 colon = system: SW-620 colon
ACHN renal = system: ACHN renal
SF-539 CNS = system: SF-539 CNS
A498 renal = system: A498 renal
SNB-75 CNS = system: SNB-75 CNS
HT29 colon = system: HT29 colon
SF-268 CNS = system: SF-268 CNS
UACC-62 melanoma = system: UACC-62 melanoma
MOLT-4 leukemia = system: MOLT-4 leukemia
HL-60(TB) leukemia = system: HL-60(TB) leukemia
HOP-92 NSCLC = system: HOP-92 NSCLC
HCC-2998 colon = system: HCC-2998 colon
HS 578T breast = system: HS 578T breast
MALME-3M melanoma = system: MALME-3M melanoma
TK-10 renal = system: TK-10 renal
OVCAR-4 ovarian = system: OVCAR-4 ovarian
SN12C renal = system: SN12C renal
SR leukemia = system: SR leukemia
MDA-MB-231 breast = system: MDA-MB-231 breast
SK-MEL-2 melanoma = system: SK-MEL-2 melanoma
SK-MEL-28 melanoma = system: SK-MEL-28 melanoma
PC-3 prostate = system: PC-3 prostate
SK-OV-3 ovarian = system: SK-OV-3 ovarian
LOX IMVI melanoma = system: LOX IMVI melanoma
NCI/ADR-RES ovarian = system: NCI/ADR-RES ovarian
EKVX NSCLC = system: EKVX NSCLC
MCF7 breast = system: MCF7 breast
SF-295 CNS = system: SF-295 CNS
DU-145 prostate = system: DU-145 prostate
HOP-62 NSCLC = system: HOP-62 NSCLC
IGROV1 ovarian = system: IGROV1 ovarian
BT-549 breast = system: BT-549 breast
CAKI-1 renal = system: CAKI-1 renal
T-47D breast = system: T-47D breast
NCI-H226 lung = system: NCI-H226 lung
CCRF-CEM leukemia = system: CCRF-CEM leukemia
NCI-H23 lung = system: NCI-H23 lung
OVCAR-5 ovarian = system: OVCAR-5 ovarian
NCI-H522 lung = system: NCI-H522 lung
KM12 colon = system: KM12 colon
NCI-H460 lung = system: NCI-H460 lung
COLO 205 colon = system: COLO 205 colon
UACC-257 melanoma = system: UACC-257 melanoma
U251 CNS = system: U251 CNS
786-0 renal = system: 786-0 renal
UO-31 renal = system: UO-31 renal
M14 melanoma = system: M14 melanoma
K-562 leukemia = system: K-562 leukemia
HCT-116 colon = system: HCT-116 colon
SNB-19 CNS = system: SNB-19 CNS
A549 NSCLC = system: A549 NSCLC
MDA-MB-435 = system: MDA-MB-435
OVCAR-8 ovarian = system: OVCAR-8 ovarian
OVCAR-3 ovarian = system: OVCAR-3 ovarian
HCT-15 colon = system: HCT-15 colon
SK-MEL-5 melanoma = system: SK-MEL-5 melanoma

For `C#C[C@]1(O)CC[C@H]2[C@@H]3CC=C4c5sc(-c6ccc7c(c6)OCO7)nc5CC[C@]4(C)[C@H]3CC[C@@]21C`, which GI50 (SW-620 colon) is on record?
Its GI50 is 2.07 µM.

And the TGI (SW-620 colon)?
Its TGI is 5.28 µM.

What about the GI50 (ACHN renal) of the same molecule?
The GI50 was 2.11 µM.

What about the TGI (ACHN renal) of the same molecule?
The TGI was 5.57 µM.

What about the GI50 (SF-539 CNS) of the same molecule?
The GI50 was 0.428 µM.

And the TGI (SF-539 CNS)?
Its TGI is 1.96 µM.

And the GI50 (A498 renal)?
The GI50 was 1.63 µM.

What about the TGI (A498 renal) of the same molecule?
The TGI was 7.49 µM.

What about the GI50 (SNB-75 CNS) of the same molecule?
The GI50 was 1.73 µM.

What about the TGI (SNB-75 CNS) of the same molecule?
Its TGI is 8.25 µM.

What about the GI50 (HT29 colon) of the same molecule?
The GI50 was 2.32 µM.

And the TGI (HT29 colon)?
Its TGI is 7.65 µM.

And the GI50 (SF-268 CNS)?
Its GI50 is 4.97 µM.

What about the TGI (SF-268 CNS) of the same molecule?
The TGI was 27.7 µM.

What about the GI50 (UACC-62 melanoma) of the same molecule?
The GI50 was 2.24 µM.

And the TGI (UACC-62 melanoma)?
The TGI was 5.19 µM.

What about the GI50 (MOLT-4 leukemia) of the same molecule?
Its GI50 is 2.8 µM.

And the TGI (MOLT-4 leukemia)?
The TGI was > 100 µM.

And the GI50 (HL-60(TB) leukemia)?
The GI50 was 3.8 µM.

What about the TGI (HL-60(TB) leukemia) of the same molecule?
The TGI was > 100 µM.

What about the GI50 (HOP-92 NSCLC) of the same molecule?
The GI50 was 8.39 µM.

What about the TGI (HOP-92 NSCLC) of the same molecule?
Its TGI is 29.8 µM.

And the GI50 (HCC-2998 colon)?
Its GI50 is 5.56 µM.

And the TGI (HCC-2998 colon)?
Its TGI is > 100 µM.

And the GI50 (HS 578T breast)?
The GI50 was 0.501 µM.

What about the TGI (HS 578T breast) of the same molecule?
The TGI was 3.98 µM.

What about the GI50 (MALME-3M melanoma) of the same molecule?
Its GI50 is 2.69 µM.

What about the TGI (MALME-3M melanoma) of the same molecule?
The TGI was 8.62 µM.

What about the GI50 (TK-10 renal) of the same molecule?
Its GI50 is 3.39 µM.

And the TGI (TK-10 renal)?
Its TGI is 10.1 µM.

What about the GI50 (OVCAR-4 ovarian) of the same molecule?
Its GI50 is 3.33 µM.

What about the TGI (OVCAR-4 ovarian) of the same molecule?
Its TGI is 9.95 µM.

And the GI50 (SN12C renal)?
The GI50 was 2.88 µM.

What about the TGI (SN12C renal) of the same molecule?
The TGI was 9.83 µM.

What about the GI50 (SR leukemia) of the same molecule?
Its GI50 is 2.64 µM.

What about the TGI (SR leukemia) of the same molecule?
Its TGI is > 100 µM.

What about the GI50 (MDA-MB-231 breast) of the same molecule?
Its GI50 is 3.45 µM.

And the TGI (MDA-MB-231 breast)?
The TGI was 40.8 µM.

And the GI50 (SK-MEL-2 melanoma)?
The GI50 was 2.14 µM.

And the TGI (SK-MEL-2 melanoma)?
The TGI was 6.37 µM.

What about the GI50 (SK-MEL-28 melanoma) of the same molecule?
Its GI50 is 1.29 µM.

And the TGI (SK-MEL-28 melanoma)?
Its TGI is 2.85 µM.

What about the GI50 (PC-3 prostate) of the same molecule?
The GI50 was 1.68 µM.

What about the TGI (PC-3 prostate) of the same molecule?
The TGI was 4.46 µM.

What about the GI50 (SK-OV-3 ovarian) of the same molecule?
Its GI50 is 4.83 µM.

And the TGI (SK-OV-3 ovarian)?
The TGI was 26.6 µM.

And the GI50 (LOX IMVI melanoma)?
The GI50 was 1.73 µM.

And the TGI (LOX IMVI melanoma)?
Its TGI is 4.3 µM.

What about the GI50 (NCI/ADR-RES ovarian) of the same molecule?
The GI50 was 3.34 µM.

What about the TGI (NCI/ADR-RES ovarian) of the same molecule?
Its TGI is 17 µM.

What about the GI50 (EKVX NSCLC) of the same molecule?
Its GI50 is 3.55 µM.

What about the TGI (EKVX NSCLC) of the same molecule?
The TGI was 73.5 µM.

And the GI50 (MCF7 breast)?
Its GI50 is 1.87 µM.

What about the TGI (MCF7 breast) of the same molecule?
The TGI was 4.95 µM.

What about the GI50 (SF-295 CNS) of the same molecule?
Its GI50 is 0.52 µM.

What about the TGI (SF-295 CNS) of the same molecule?
The TGI was 2.56 µM.

What about the GI50 (DU-145 prostate) of the same molecule?
The GI50 was 3.45 µM.

What about the TGI (DU-145 prostate) of the same molecule?
The TGI was 70.5 µM.

And the GI50 (HOP-62 NSCLC)?
The GI50 was 2.53 µM.

What about the TGI (HOP-62 NSCLC) of the same molecule?
Its TGI is 7.94 µM.

What about the GI50 (IGROV1 ovarian) of the same molecule?
Its GI50 is 2.98 µM.

What about the TGI (IGROV1 ovarian) of the same molecule?
Its TGI is 8.3 µM.

What about the GI50 (BT-549 breast) of the same molecule?
Its GI50 is 1.99 µM.

And the TGI (BT-549 breast)?
Its TGI is 5.67 µM.

What about the GI50 (CAKI-1 renal) of the same molecule?
Its GI50 is 2.63 µM.

And the TGI (CAKI-1 renal)?
Its TGI is 8.37 µM.

What about the GI50 (T-47D breast) of the same molecule?
The GI50 was 3.62 µM.

What about the TGI (T-47D breast) of the same molecule?
Its TGI is 27.6 µM.

And the GI50 (NCI-H226 lung)?
Its GI50 is 3.31 µM.

What about the TGI (NCI-H226 lung) of the same molecule?
The TGI was 12.6 µM.

And the GI50 (CCRF-CEM leukemia)?
The GI50 was 2.8 µM.

What about the TGI (CCRF-CEM leukemia) of the same molecule?
Its TGI is > 100 µM.

What about the GI50 (NCI-H23 lung) of the same molecule?
Its GI50 is 2.13 µM.

What about the TGI (NCI-H23 lung) of the same molecule?
The TGI was 5.29 µM.

And the GI50 (OVCAR-5 ovarian)?
The GI50 was 2.08 µM.

What about the TGI (OVCAR-5 ovarian) of the same molecule?
Its TGI is 5.29 µM.

What about the GI50 (NCI-H522 lung) of the same molecule?
The GI50 was 2.38 µM.

And the TGI (NCI-H522 lung)?
Its TGI is 6.17 µM.

What about the GI50 (KM12 colon) of the same molecule?
Its GI50 is 3.46 µM.

What about the TGI (KM12 colon) of the same molecule?
Its TGI is 31.1 µM.

What about the GI50 (NCI-H460 lung) of the same molecule?
Its GI50 is 2.38 µM.

What about the TGI (NCI-H460 lung) of the same molecule?
Its TGI is 5.64 µM.

And the GI50 (COLO 205 colon)?
Its GI50 is 3.87 µM.

What about the TGI (COLO 205 colon) of the same molecule?
Its TGI is 27.8 µM.

And the GI50 (UACC-257 melanoma)?
The GI50 was 2.43 µM.

And the TGI (UACC-257 melanoma)?
Its TGI is 6.7 µM.

And the GI50 (U251 CNS)?
The GI50 was 1.41 µM.

What about the TGI (U251 CNS) of the same molecule?
The TGI was 4.53 µM.

What about the GI50 (786-0 renal) of the same molecule?
Its GI50 is 0.841 µM.

What about the TGI (786-0 renal) of the same molecule?
Its TGI is 3.78 µM.

What about the GI50 (UO-31 renal) of the same molecule?
Its GI50 is 2.03 µM.

And the TGI (UO-31 renal)?
Its TGI is 5.47 µM.

What about the GI50 (M14 melanoma) of the same molecule?
Its GI50 is 1.73 µM.

What about the TGI (M14 melanoma) of the same molecule?
Its TGI is 5.34 µM.

And the GI50 (K-562 leukemia)?
Its GI50 is 3.53 µM.

And the TGI (K-562 leukemia)?
The TGI was > 100 µM.

What about the GI50 (HCT-116 colon) of the same molecule?
Its GI50 is 1.84 µM.

What about the TGI (HCT-116 colon) of the same molecule?
The TGI was 5.3 µM.

What about the GI50 (SNB-19 CNS) of the same molecule?
Its GI50 is 2.59 µM.

What about the TGI (SNB-19 CNS) of the same molecule?
The TGI was 13.8 µM.

And the GI50 (A549 NSCLC)?
Its GI50 is 2.76 µM.

What about the TGI (A549 NSCLC) of the same molecule?
Its TGI is 8.48 µM.

What about the GI50 (MDA-MB-435) of the same molecule?
Its GI50 is 1.97 µM.

And the TGI (MDA-MB-435)?
Its TGI is 4.17 µM.

What about the GI50 (OVCAR-8 ovarian) of the same molecule?
Its GI50 is 3.43 µM.

What about the TGI (OVCAR-8 ovarian) of the same molecule?
The TGI was 86.3 µM.

And the GI50 (OVCAR-3 ovarian)?
The GI50 was 3 µM.

What about the TGI (OVCAR-3 ovarian) of the same molecule?
The TGI was 11.9 µM.

What about the GI50 (HCT-15 colon) of the same molecule?
The GI50 was 1.93 µM.

And the TGI (HCT-15 colon)?
Its TGI is 6.28 µM.

What about the GI50 (SK-MEL-5 melanoma) of the same molecule?
Its GI50 is 2.64 µM.

What about the TGI (SK-MEL-5 melanoma) of the same molecule?
Its TGI is 6.99 µM.
